Test results: US6057348A (Oregon State University, priority 1998, dated 2000)
Entries after “also recorded” stand apart in the source; their conditions may differ.

Tests used:
tubulin [1] = assay: Inhibition of [3H]colchicine binding to tubulin (DEAE-cellulose filter method); set-up: species or system bovine; conditions: 5.0 μM [3H]colchicine, 1.0 μM tubulin; for Inhibition of Colchicine Binding % Inhibition ± SD: inhibitor 5.0 μM; for Inhibition of Colchicine Binding % Inhibition ± SD (values in parentheses): inhibitor 50 μM
Procedure: (§1) Electrophoretically homogeneous bovine brain tubulin was prepared as described previously (20). Nonradiolabeled colchicine was obtained from Sigma and [^3 H]colchicine from Dupont-NEN. Stock 2.0 M solutions of monosodium glutamate were adjusted to pH 6.6 with HCl. MCF-7 breast cancer cells were obtained from Dr. D. Scudiero, National Cancer Institute. Curacin A is referred to in the tables provided below, and was obtained as stated in Gerwick's U.S. Pat. No. 5,324,739. All data presented for curacin A represent averages obtained in contemporaneous experiments with natural and synthetic drug. All drugs were dissolved in dimethyl sulfoxide, and control reaction mixtures contained an equivalent amount of the solvent.
The binding of [^3 H]colchicine to tubulin was measured by the DEAE-cellulose filter method as described by Kang et al., "N-acetylcolchinol O-methyl Ether and Thiocolchicine, Potent Analogs of Colchicine Modified in the C Ring: Evaluation of the Mechanistic Basis for Their Enhanced Biological Properties," J. Biol. Chem. 265:10255-1-259 (1990). Reaction mixtures contained 1.0 μM (0.1 mg/mL) tubulin, 1.0 M monosodium glutamate, 0.1 M glucose-1-phosphate, 1.0 mM MgCl2, 1.0 mM GTP, 0.5 mg/mL bovine serum albumin, 5% (v/v) dimethyl sulfoxide, 5.0 μM [^3 H]colchicine and inhibitor at either 5.0 or 50 μM as indicated. These reaction conditions were used because they strongly stabilize the colchicine binding activity of tubulin. The values presented represent averages of three experiments, each with duplicate samples.
(§2) The R1 -R3 substituents referred to in Table 1 are with reference to Formula 11, which, for convenience, is reproduced above Table 1. [drawing 13]

MCF-7 cells = assay: Inhibition of MCF-7 breast cancer cell growth (sulforhodamine B); format: cell-based; conditions: Homo sapiens, MCF7; 48 hours drug exposure; ± SD
Procedure: as §1
IC50 values for inhibition of cell growth were obtained by measuring the amount of total cell protein with the sulforhodamine B assay as described by Skehan et al., "New Colorimetric Cytotoxicity Assay for Anticancer-drug Screening," J. Natl. Cancer Inst., 82:1107-1112 (1990). MCF-7 cells were grown in RPMI 1640 medium containing 17% fetal calf serum, 12 μg/mL gentamicin sulfate and 2 mM glutamine at 37° in 5% CO2. Confluent cells were trypsinized, diluted 40-fold, and seeded into 96-well microtiter plates. After 24 hours of growth without drug, medium with varying concentrations of drug was added to different wells (final concentration of dimethyl sulfoxide, 0.1%). […] The values presented are averages from at least two independent experiments.
as §2

tubulin [2] = assay: Inhibition of tubulin polymerization (turbidimetric, 350 nm); format: biochemical, bovine; conditions: 1.0 mg/mL tubulin, 0.8 M glutamate, 30°, 20 minutes; ± SD
Procedure: as §1
Tubulin polymerization was followed turbidimetrically at 350 nm in Gilford model 250 spectrophotometers equipped with electronic temperature controllers. All concentrations refer to the final reaction volume of 0.25 mL, although the preincubation was performed in 0.24 mL, followed by addition of 10 μL of 10 mM GTP. Reaction mixtures contained 1.0 mg/mL tubulin, 0.8 M monosodium glutamate, 4% dimethyl sulfoxide and varying drug concentrations. Samples were preincubated for 15 minutes at 30° and chilled on ice. GTP was added to each reaction mixture, and these were placed in cuvettes held at 0°. Baselines were established, the temperature was raised to 30° (at a rate of about 0.5°/sec), and polymerization was followed for 20 minutes. IC50 values were determined by graphical interpolation of experimental points, with drug-containing samples compared to control reaction mixtures containing dimethyl sulfoxide but no drug. At least three independent IC50 values were obtained with each compound.
as §2

brine shrimp = conditions: Example 1 of U.S. Pat. No. 5,324,739; cited from earlier work
[3] = Chemical stability on storage neat
tubulin [4] = conditions: background; cited from earlier work
cell growth and mitosis = conditions: background; cited from earlier work
[5] = stored neat; cited from earlier work
microtubule ends = conditions: low concentrations; background; cited from earlier work
β-tubulin = conditions: background; cited from earlier work
microtubule assembly = conditions: background; cited from earlier work
antimitotic activity = assay: Biological activity of isolated curacins; conditions: various tests
[6] = tested on: colchicine site of tubulin; conditions: background; cited from earlier work
[7] = tested on: 60 different human tumor cell lines; assay: NCI 60-cell line screen / mode of action of curazole; format: cell-based; conditions: COMPARE mean-graph profiles / 60-cell line assay
Procedure: In these examples, curazole was subjected to the drug screening procedure employed by the National Cancer Institute for the screening of drugs having possible anticancer utility. The screening procedure employed a diverse, disease-oriented panel consisting of 60 different human tumor cell lines organized into seven disease-specific subpanels. Curazole was tested over a wide range of concentrations for cytotoxic or growth-inhibitory effects against each cell line comprising the panel. The seven subpanels represented diverse histologies (leukemias, melanomas, and tumors of the lung, colon, kidney, ovary, and brain).
Curazole was tested over a period of several days. During this period the cells were continuously exposed to five log10 -spaced concentrations of the drug starting at about 10^-4 μg/mL. The tests produced 60 individual dose-response curves, one for each cell line (i.e., one for each example).
To produce data for the mean-graph format shown in FIG. 2, a concentration of the extract that produced a target level response was calculated for each cell line. Three different response parameters were evaluated. […] The second response parameter was the total growth inhibition ("TGI"), which is the concentration at which the number of tumor cells remaining at the end of the incubation period substantially equaled the number of tumor cells existing at the start of the incubation period. […]

Compound | Inhibition of Colchicine Binding % Inhibition ± SD (tubulin [1]) | IC50 (MCF-7 cells) | IC50 (tubulin [2]) | biological activity, particularly antimitotic activity (antimitotic activity) | further results
C=CCCc1nc(/C=C\CC/C=C/C=C(\C)CC[C@H](CC=C)OC)cs1 [1-butene derivative] | 83 ± 6% | 300 ± 200 nM | 920 ± 200 nM |  | 
CCC[C@@H](CC/C(C)=C/C=C/CCCC[C@@H]1CSC([C@@H]2C[C@@H]2C)=N1)OC [C3,4,15,16 Tetrahydro, 3,4,15,16-tetrahydrocuracin A] | 1 ± 1% | 3300 ± 2000 nM | 4600 ± 1000 nM |  | Inhibition of Colchicine Binding % Inhibition ± SD (values in parentheses) (tubulin [1]): 28 ± 6%
C=CCC1(CC/C(C)=C/C=C/CC/C=C\[C@@H]2CSC([C@@H]3C[C@@H]3C)=N2)OCCO1 [C13 Ethylene-dioxy] | 92 ± 1% | 30 ± 10 nM | 780 ± 300 nM |  | 
C=CC[C@H](O)CC/C(C)=C/C=C/CC/C=C\[C@@H]1CSC([C@H]2C[C@@H]2C)=N1 [C13 Hydroxyl, Epi C19] | 71 ± 5% | 610 ± 200 nM | 730 ± 100 nM |  | 
C=CC[C@H](O)CC/C(C)=C/C=C/CC/C=C\[C@@H]1CSC([C@@H]2C[C@@H]2C)=N1 [C13 Hydroxyl] | 82 ± 7% | 450 ± 20 nM | 870 ± 90 nM |  | 
C=CC[C@@H](CC/C(C)=C/C=C/CC/C=C\[C@@H]1CSC([C@H]2C[C@@H]2C)=N1)OCOC [C13 Methyl-methoxy, Epi C19] | 16 ± 3% | 3100 ± 2000 nM | 3200 ± 300 nM |  | Inhibition of Colchicine Binding % Inhibition ± SD (values in parentheses) (tubulin [1]): 32 ± 4%
C=CC[C@@H](CC/C(C)=C/C=C/CC/C=C\[C@@H]1CSC([C@@H]2C[C@@H]2C)=N1)OCOC [C13 Methyl-methoxy] | 81 ± 6% | 220 nM | 640 ± 200 nM |  | 
CCC[C@@H](CC/C(C)=C/C=C/CC/C=C\[C@@H]1CSC([C@@H]2C[C@@H]2C)=N1)OC [C15,16-dihydro] | 85 ± 7% | 46 nM | 1200 ± 200 nM |  | 
C=CC[C@@H](CC/C(C)=C/C=C/CC/C=C\[C@@H]1CSC([C@@H]2C[C@@H]2C)=N1)OC [Curacin A] | 94 ± 2% | 38 ± 10 nM | 720 ± 200 nM | substantial biological activity, particularly antimitotic activity | effectiveness for reducing a population of arthropods (brine shrimp) (brine shrimp): effectiveness; stability ([3]; particularly when stored neat): limited stability; biological activity after storage neat ([3]; stored neat versus stored under a solvent): less biological activity than curacin A stored under a solvent; uncoupled GTPase reaction (tubulin [4]): stimulated the uncoupled GTPase reaction; inhibition of cell growth and mitosis (cell growth and mitosis): potent inhibitor of cell growth and mitosis; chemical stability [5]: limited chemical stability; tubulin turnover at microtubule ends (microtubule ends): increase tubulin turnover at microtubule ends; formation of the cys239-cys354 cross link (β-tubulin): inhibits formation of the cys239-cys354 cross link; inhibition of microtubule assembly (microtubule assembly): inhibits microtubule assembly; binding at colchicine site of tubulin [6]: binding rapidly and dissociating slowly from tubulin; also recorded: binding rapidly and tightly at the colchicine site of tubulin; inhibition of the binding of colchicine to tubulin [6]: potent competitive inhibitor of the binding of colchicine to tubulin
C=CC[C@@H](CC/C(C)=C/C=C\CC/C=C\[C@@H]1CSC([C@@H]2C[C@@H]2C)=N1)OC [Curacin B] |  |  |  | substantial biological activity, particularly antimitotic activity | 
C=CC[C@@H](CC/C(C)=C\C=C\CC/C=C\[C@@H]1CSC([C@@H]2C[C@@H]2C)=N1)OC [Curacin C] |  |  |  | substantial biological activity, particularly antimitotic activity | 
C=CC[C@@H](CC/C=C/C=C/CC/C=C\[C@@H]1CSC([C@@H]2C[C@@H]2C)=N1)OC [Curacin D] | 53 ± 10% | 340 ± 100 nM |  | substantial biological activity, particularly antimitotic activity | 
C=CC[C@@H](CC/C(C)=C/C=C/CC/C=C\c1csc([C@@H]2C[C@@H]2C)n1)OC [Curazole, [13R,19R,21S]-1,2-didehydrocuracin A] | 74 ± 11% | 300 ± 70 nM | 740 ± 10 nM |  | mode of action [7]: functions as an antimitotic and has a mode of action similar to a number of conventional antineoplastics
